#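 Step 1: Grow cells in 96-well plates. Step 2: Expose to compound for 48 hours at 5 concentrations. Step 3: Interpolate endpoints linearly; if unreached, use highest concentration. GI50 is the concentration that inhibits growth by half. TGI is the concentration that stops growth completely.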
# How the values were obtained:
# Assay in all cases: DTP human tumour cell line panel, 48 h
# SK-OV-3 ovarian = tested on: SK-OV-3 ovarian
# OVCAR-3 ovarian = tested on: OVCAR-3 ovarian
# RXF 393 renal = tested on: RXF 393 renal
# UACC-257 melanoma = tested on: UACC-257 melanoma
# UACC-62 melanoma = tested on: UACC-62 melanoma
# T-47D breast = tested on: T-47D breast
# OVCAR-8 ovarian = tested on: OVCAR-8 ovarian
# COLO 205 colon = tested on: COLO 205 colon
# SF-268 CNS = tested on: SF-268 CNS
# SK-MEL-5 melanoma = tested on: SK-MEL-5 melanoma
# LOX IMVI melanoma = tested on: LOX IMVI melanoma
# BT-549 breast = tested on: BT-549 breast
# NCI-H226 lung = tested on: NCI-H226 lung
# A498 renal = tested on: A498 renal
# SW-620 colon = tested on: SW-620 colon
# NCI-H23 lung = tested on: NCI-H23 lung
# ACHN renal = tested on: ACHN renal
# TK-10 renal = tested on: TK-10 renal
# KM12 colon = tested on: KM12 colon
# PC-3 prostate = tested on: PC-3 prostate
# HOP-62 NSCLC = tested on: HOP-62 NSCLC
# SNB-19 CNS = tested on: SNB-19 CNS
# A549 NSCLC = tested on: A549 NSCLC
# MDA-MB-435 = tested on: MDA-MB-435
# MCF7 breast = tested on: MCF7 breast
# OVCAR-5 ovarian = tested on: OVCAR-5 ovarian
# HCT-116 colon = tested on: HCT-116 colon
# SK-MEL-28 melanoma = tested on: SK-MEL-28 melanoma
# RPMI-8226 leukemia = tested on: RPMI-8226 leukemia
# CCRF-CEM leukemia = tested on: CCRF-CEM leukemia
# SF-539 CNS = tested on: SF-539 CNS
# HCT-15 colon = tested on: HCT-15 colon
# SK-MEL-2 melanoma = tested on: SK-MEL-2 melanoma
# HL-60(TB) leukemia = tested on: HL-60(TB) leukemia
# NCI/ADR-RES ovarian = tested on: NCI/ADR-RES ovarian
# MOLT-4 leukemia = tested on: MOLT-4 leukemia
# SNB-75 CNS = tested on: SNB-75 CNS
# DU-145 prostate = tested on: DU-145 prostate
# OVCAR-4 ovarian = tested on: OVCAR-4 ovarian
# HCC-2998 colon = tested on: HCC-2998 colon
# HOP-92 NSCLC = tested on: HOP-92 NSCLC
# SF-295 CNS = tested on: SF-295 CNS
# SR leukemia = tested on: SR leukemia
# SN12C renal = tested on: SN12C renal
# 786-0 renal = tested on: 786-0 renal
# CAKI-1 renal = tested on: CAKI-1 renal
# U251 CNS = tested on: U251 CNS
# M14 melanoma = tested on: M14 melanoma
# UO-31 renal = tested on: UO-31 renal
# IGROV1 ovarian = tested on: IGROV1 ovarian
# NCI-H460 lung = tested on: NCI-H460 lung
# HS 578T breast = tested on: HS 578T breast
# NCI-H522 lung = tested on: NCI-H522 lung
# MDA-MB-231 breast = tested on: MDA-MB-231 breast
# K-562 leukemia = tested on: K-562 leukemia
# EKVX NSCLC = tested on: EKVX NSCLC
# HT29 colon = tested on: HT29 colon
structure (smiles),measurement,setting,value
Cc1cccc(NC(=O)c2sc3nc4c(cc3c2N)CCCC4)c1,GI50,SK-OV-3 ovarian,12.9 µM
same,TGI,SK-OV-3 ovarian,63.9 µM
same,GI50,OVCAR-3 ovarian,4.84 µM
same,TGI,OVCAR-3 ovarian,> 100 µM
same,GI50,RXF 393 renal,4.71 µM
same,TGI,RXF 393 renal,23.2 µM
same,GI50,UACC-257 melanoma,> 100 µM
same,TGI,UACC-257 melanoma,> 100 µM
same,GI50,UACC-62 melanoma,2.19 µM
same,TGI,UACC-62 melanoma,> 100 µM
same,GI50,T-47D breast,10.2 µM
same,TGI,T-47D breast,> 100 µM
same,GI50,OVCAR-8 ovarian,20.9 µM
same,TGI,OVCAR-8 ovarian,> 100 µM
same,GI50,COLO 205 colon,4.96 µM
same,TGI,COLO 205 colon,> 100 µM
same,GI50,SF-268 CNS,10.7 µM
same,TGI,SF-268 CNS,> 100 µM
same,GI50,SK-MEL-5 melanoma,2.3 µM
same,TGI,SK-MEL-5 melanoma,47.3 µM
same,GI50,LOX IMVI melanoma,8.52 µM
same,TGI,LOX IMVI melanoma,> 100 µM
same,GI50,BT-549 breast,7.56 µM
same,TGI,BT-549 breast,62 µM
same,GI50,NCI-H226 lung,9.68 µM
same,TGI,NCI-H226 lung,73.5 µM
same,GI50,A498 renal,5.87 µM
same,TGI,A498 renal,66.4 µM
same,GI50,SW-620 colon,3.42 µM
same,TGI,SW-620 colon,> 100 µM
same,GI50,NCI-H23 lung,27.8 µM
same,TGI,NCI-H23 lung,> 100 µM
same,GI50,ACHN renal,10.5 µM
same,TGI,ACHN renal,> 100 µM
same,GI50,TK-10 renal,13.7 µM
same,TGI,TK-10 renal,90.6 µM
same,GI50,KM12 colon,3.32 µM
same,TGI,KM12 colon,> 100 µM
same,GI50,PC-3 prostate,16.2 µM
same,TGI,PC-3 prostate,> 100 µM
same,GI50,HOP-62 NSCLC,4.97 µM
same,TGI,HOP-62 NSCLC,36.8 µM
same,GI50,SNB-19 CNS,6.92 µM
same,TGI,SNB-19 CNS,68 µM
same,GI50,A549 NSCLC,8.33 µM
same,TGI,A549 NSCLC,> 100 µM
same,GI50,MDA-MB-435,0.305 µM
same,TGI,MDA-MB-435,2 µM
same,GI50,MCF7 breast,1.15 µM
same,TGI,MCF7 breast,> 100 µM
same,GI50,OVCAR-5 ovarian,> 100 µM
same,TGI,OVCAR-5 ovarian,> 100 µM
same,GI50,HCT-116 colon,2.59 µM
same,TGI,HCT-116 colon,> 100 µM
same,GI50,SK-MEL-28 melanoma,9.23 µM
same,TGI,SK-MEL-28 melanoma,> 100 µM
same,GI50,RPMI-8226 leukemia,5.74 µM
same,TGI,RPMI-8226 leukemia,> 100 µM
same,GI50,CCRF-CEM leukemia,4.46 µM
same,TGI,CCRF-CEM leukemia,> 100 µM
same,GI50,SF-539 CNS,4.74 µM
same,TGI,SF-539 CNS,60.5 µM
same,GI50,HCT-15 colon,0.845 µM
same,TGI,HCT-15 colon,> 100 µM
same,GI50,SK-MEL-2 melanoma,8.99 µM
same,TGI,SK-MEL-2 melanoma,52.5 µM
same,GI50,HL-60(TB) leukemia,2.36 µM
same,TGI,HL-60(TB) leukemia,17.7 µM
same,GI50,NCI/ADR-RES ovarian,4.59 µM
same,TGI,NCI/ADR-RES ovarian,> 100 µM
same,GI50,MOLT-4 leukemia,12 µM
same,TGI,MOLT-4 leukemia,> 100 µM
same,GI50,SNB-75 CNS,3.84 µM
same,TGI,SNB-75 CNS,18.9 µM
same,GI50,DU-145 prostate,13.4 µM
same,TGI,DU-145 prostate,> 100 µM
same,GI50,OVCAR-4 ovarian,3.22 µM
same,TGI,OVCAR-4 ovarian,39.1 µM
same,GI50,HCC-2998 colon,45.4 µM
same,TGI,HCC-2998 colon,> 100 µM
same,GI50,HOP-92 NSCLC,9 µM
same,TGI,HOP-92 NSCLC,32 µM
same,GI50,SF-295 CNS,3.51 µM
same,TGI,SF-295 CNS,23.8 µM
same,GI50,SR leukemia,0.549 µM
same,TGI,SR leukemia,11.2 µM
same,GI50,SN12C renal,24 µM
same,TGI,SN12C renal,> 100 µM
same,GI50,786-0 renal,4.13 µM
same,TGI,786-0 renal,32.4 µM
same,GI50,CAKI-1 renal,6.7 µM
same,TGI,CAKI-1 renal,> 100 µM
same,GI50,U251 CNS,8.33 µM
same,TGI,U251 CNS,45.2 µM
same,GI50,M14 melanoma,2 µM
same,TGI,M14 melanoma,> 100 µM
same,GI50,UO-31 renal,25.2 µM
same,TGI,UO-31 renal,> 100 µM
same,GI50,IGROV1 ovarian,17.7 µM
same,TGI,IGROV1 ovarian,> 100 µM
same,GI50,NCI-H460 lung,5.25 µM
same,TGI,NCI-H460 lung,> 100 µM
same,GI50,HS 578T breast,9.92 µM
same,TGI,HS 578T breast,> 100 µM
same,GI50,NCI-H522 lung,16.4 µM
same,TGI,NCI-H522 lung,> 100 µM
same,GI50,MDA-MB-231 breast,14.8 µM
same,TGI,MDA-MB-231 breast,52.2 µM
O=c1nc(Oc2c(F)c(F)c(F)c(F)c2F)ccn1C1OC(CO)C(O)C1O (configuration not stated),TGI,SK-OV-3 ovarian,> 100 µM
same,TGI,OVCAR-3 ovarian,> 100 µM
same,TGI,RXF 393 renal,> 100 µM
same,TGI,UACC-257 melanoma,> 100 µM
same,TGI,UACC-62 melanoma,> 100 µM
same,TGI,T-47D breast,> 100 µM
same,TGI,OVCAR-8 ovarian,> 100 µM
same,TGI,COLO 205 colon,> 100 µM
same,TGI,SF-268 CNS,> 100 µM
same,TGI,SK-MEL-5 melanoma,> 100 µM
same,TGI,LOX IMVI melanoma,> 100 µM
same,TGI,BT-549 breast,> 100 µM
same,TGI,A498 renal,> 100 µM
same,TGI,SW-620 colon,> 100 µM
same,TGI,NCI-H23 lung,> 100 µM
same,TGI,ACHN renal,> 100 µM
same,TGI,TK-10 renal,> 100 µM
same,TGI,K-562 leukemia,> 100 µM
same,TGI,KM12 colon,> 100 µM
same,TGI,PC-3 prostate,> 100 µM
same,TGI,HOP-62 NSCLC,> 100 µM
same,TGI,SNB-19 CNS,> 100 µM
same,TGI,A549 NSCLC,> 100 µM
same,TGI,MDA-MB-435,> 100 µM
same,TGI,MCF7 breast,> 100 µM
same,TGI,OVCAR-5 ovarian,> 100 µM
same,TGI,HCT-116 colon,> 100 µM
same,TGI,SK-MEL-28 melanoma,> 100 µM
same,TGI,EKVX NSCLC,> 100 µM
same,TGI,RPMI-8226 leukemia,> 100 µM
same,TGI,CCRF-CEM leukemia,> 100 µM
same,TGI,SF-539 CNS,> 100 µM
same,TGI,HCT-15 colon,> 100 µM
same,TGI,SK-MEL-2 melanoma,> 100 µM
same,TGI,NCI/ADR-RES ovarian,> 100 µM
same,TGI,MOLT-4 leukemia,> 100 µM
same,TGI,SNB-75 CNS,> 100 µM
same,TGI,DU-145 prostate,> 100 µM
same,TGI,OVCAR-4 ovarian,> 100 µM
same,TGI,HT29 colon,> 100 µM
same,TGI,HCC-2998 colon,> 100 µM
same,TGI,HOP-92 NSCLC,> 100 µM
same,TGI,SF-295 CNS,> 100 µM
same,TGI,SR leukemia,> 100 µM
same,TGI,SN12C renal,> 100 µM
same,TGI,786-0 renal,> 100 µM
same,TGI,CAKI-1 renal,> 100 µM
same,TGI,U251 CNS,> 100 µM
same,TGI,M14 melanoma,> 100 µM
same,TGI,UO-31 renal,> 100 µM
same,TGI,IGROV1 ovarian,> 100 µM
same,TGI,HS 578T breast,> 100 µM
same,TGI,NCI-H522 lung,> 100 µM
same,TGI,MDA-MB-231 breast,> 100 µM

# Source: PubChem BioAssay (NCI)
